Reference: paper PMC8482806, “A Novel Blood-Brain Barrier-Permeable Chemotherapeutic Agent for the Treatment of Glioblastoma” (Cureus, 2021)

Legend:
[1] = Microscopic evaluation of brain tissue after dosing rodents; type: in vivo; conditions: rodents dosed with high levels
hLAT1 = biological target: T1, hLAT1 (Homo sapiens, UniProt Q01650); test: Substrate transport inhibition, [3H]-gabapentin uptake in LLC-PK1 cells expressing hLAT1; type: cell-based
T1 construct: host or cells: LLC-PK1 (tetracycline-inducible, Invitrogen Gateway pT-REx System)
T1 sequence (Q01650 whole entry): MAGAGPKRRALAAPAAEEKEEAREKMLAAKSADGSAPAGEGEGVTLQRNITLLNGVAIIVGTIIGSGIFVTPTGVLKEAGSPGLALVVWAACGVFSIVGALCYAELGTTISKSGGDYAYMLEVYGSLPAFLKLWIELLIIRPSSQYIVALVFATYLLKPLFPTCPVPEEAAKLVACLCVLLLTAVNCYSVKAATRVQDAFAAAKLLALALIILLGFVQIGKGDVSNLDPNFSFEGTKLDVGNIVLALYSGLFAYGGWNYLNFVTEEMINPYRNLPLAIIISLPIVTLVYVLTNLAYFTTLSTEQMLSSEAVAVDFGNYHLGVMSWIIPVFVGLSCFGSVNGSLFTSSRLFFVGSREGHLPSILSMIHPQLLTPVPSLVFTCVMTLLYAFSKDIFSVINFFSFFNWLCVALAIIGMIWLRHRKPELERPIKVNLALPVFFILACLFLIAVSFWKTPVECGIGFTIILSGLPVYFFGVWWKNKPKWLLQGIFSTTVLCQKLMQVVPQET
T1 sequence (P08195 102-630 partner): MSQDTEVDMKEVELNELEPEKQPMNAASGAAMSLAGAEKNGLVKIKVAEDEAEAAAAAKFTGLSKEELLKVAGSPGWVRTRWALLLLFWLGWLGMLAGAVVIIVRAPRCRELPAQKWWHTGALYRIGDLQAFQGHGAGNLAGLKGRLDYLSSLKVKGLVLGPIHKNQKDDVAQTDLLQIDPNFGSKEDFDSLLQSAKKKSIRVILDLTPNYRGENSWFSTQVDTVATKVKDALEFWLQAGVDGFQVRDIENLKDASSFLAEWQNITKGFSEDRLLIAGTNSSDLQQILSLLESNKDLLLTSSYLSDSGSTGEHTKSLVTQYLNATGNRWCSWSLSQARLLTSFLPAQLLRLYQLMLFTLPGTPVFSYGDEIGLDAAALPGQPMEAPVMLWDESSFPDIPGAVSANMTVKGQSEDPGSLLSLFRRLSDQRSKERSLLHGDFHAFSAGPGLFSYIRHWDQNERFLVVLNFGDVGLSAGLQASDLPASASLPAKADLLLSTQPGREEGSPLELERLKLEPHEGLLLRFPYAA
Description: Substrate transport inhibition studies were conducted with LLC-PK1 cells inducibly expressing either hLAT1 or hLAT2. Cells were plated in growth media with 1 μg/mL doxycycline at 30,000 cells/well in 96-well plates. Sixteen hours after plating, cells were treated with butyrate at a final concentration of 5 mM. The following day, cells were washed with PBS and incubated in the presence or absence of various concentrations of QBS10072S with 30,000 cpm/well of either [3H]-gabapentin (LAT1) or [3H]-leucine (LAT2) in PBS for 15 minutes at room temperature. The non-specific cell-bound activity was determined by the addition of 5 mM unlabeled gabapentin (LAT1) or leucine (LAT2). Unincorporated radioactivity was removed, and cells were washed three times with ice-cold PBS. Cells were lysed by adding scintillation fluid to each well, and cell-associated radioactivity was determined via scintillation counting using a multichannel 96-well plate reader (MicroBeta Trilux, Perkin Elmer, Waltham, MA). Data were expressed as the percent of specific radioactivity uptake in wells with no compound added. LC50s were determined by non-linear curve-fitting using GraphPad Prism (San Diego, CA).

[2] = tested on: U251 intracerebral human GBM xenograft; test: U251 intracerebral human GBM xenograft in athymic mice (BLI, survival); type: in vivo, mouse
Description: Five-week-old female athymic mice (nu/nu, homozygous: Simonsen Laboratories, Gilroy, CA), housed under aseptic conditions, received intracranial tumor cell injection as previously described and as approved by the University of California San Francisco Institutional Animal Care and Use Committee, Protocol #: AN111064-03. Briefly, mice were anesthetized by intraperitoneal injection of ketamine (100 mg/kg) and xylazine (10 mg/kg) and injected with 3 μL of tumor cell suspension (300,000 cells total) into the right caudate-putamen. Coordinates: 3 mm to the right from bregma, on top of the coronal suture, and 3.5 mm depth. Injection rate: ~30 second/uL. For treatment studies, eight mice were used for each group for LN229 studies and nine mice per group for U251 studies. Treatments began when tumors entered the log-phase of growth as measured by luminescence, for the LN229 experiment on Day 21 and for U251 experiments on Day 14.
Dosing levels and frequency are described in the figure legends.
For bioluminescence imaging (BLI), mice were anesthetized as above, then administered 150 mg/kg of luciferin (D-luciferin potassium salt, Gold Biotechnology, St. Louis, MO) via intraperitoneal injection. Ten minutes after luciferin injection, mice were examined for tumor bioluminescence with an IVIS Lumina imaging station and Living Image software (Caliper Life Sciences, Alameda, CA), and regions of interest were recorded as photons per second per steradian per square cm.
Mice were anesthetized via inhalation of 2.5% isoflurane with 1 L of oxygen per minute for five minutes prior to being positioned on an irradiation platform located 16.3 cm from a cesium-137 source (JL Shepherd & Associates, San Fernando, CA). Eyes, respiratory tracts, and bodies were protected with lead shielding. Mice received whole-brain irradiation at a dose rate of 247 cGy/min until 1.5 Gy radiation had been administered. After irradiation, animals were monitored until recovery. Mice were irradiated once daily for five consecutive days. All mice received the first radiation dose when tumors were in a log-phase growth (Day 14) as determined by BLI.
Tumor-bearing mice were treated with temozolomide (TMZ) 4 mg/kg via oral gavage, starting on day 14 post U251 cell injection once daily for five days - concurrent therapy with RT. TMZ was obtained from the UCSF hospital pharmacy and formulated with the Ora-Plus suspending vehicle (Perrigo, Dublin, Ireland) with a working concentration of 1 mg/mL.

[3] = [14C]-QBS10072S distribution by quantitative whole-body autoradiography in mice with intracranial LN229 tumors; type: in vivo, mouse; conditions: 5 mg/kg IV
Description: Athymic mice with intracranial implanted LN229 cells received a single IV dose of 5 mg/kg and 200 μCi/kg [14C]-QBS10072S into the tail vein using the formulation described above. Animals (one per time point) were sacrificed one, eight, and 24 hours post-dose, and frozen in a hexane/solid carbon dioxide bath for at least 10 minutes. The carcasses were processed as described for quantitative whole-body autoradiography. Briefly, sagittal sections (~ 40 μm thick) were cut using a microtome, mounted, and exposed to a [14C]-sensitive phosphor imaging plate for four days. The images were scanned and quantitated by image densitometry using MCID image analysis software. The concentrations of radioactivity were expressed as the μg equivalents of test article per gram sample (μg equiv/g). The upper and lower limits of quantification were 550 and 0.008 μg equiv/g, respectively (QPS, Newark, DE).

Cc1ccc(N(CCCl)CCCl)cc1C[C@H](N)CC(=O)O [QBS10072S, (+)-(3S)-amino-4-[5-[bis(2-chloroethyl)amino]-2-methyl-phenyl]butanoic acid]
alterations of the BBB, microscopic evaluation of brain tissue [1]: no alterations of the BBB | IC50 (hLAT1; [3H]-gabapentin, LLC-PK1 LAT1-expressing cells, 15 minutes at room temperature, read-out: IC50, inhibition of substrate transport (LAT1)): 21 µM | selectivity LAT1 vs. LAT2 in transport assays (hLAT1; ratio of IC50s LAT2/LAT1): 50 fold | body weight loss over the course of the study ([2]; 10 mg/kg IV once a week for six weeks): no significant body weight loss | median survival time ([2]; 10 mg/kg IV once a week for six weeks, vehicle 37): 70 days | median survival time ([2]; QBS10072S 10 mg/kg once a week for 4 weeks + RT 1.5 Gy daily for 5 days, vehicle 35): 64 days | median survival time ([2]; QBS10072S alone, 10 mg/kg once a week for 4 weeks, vehicle 35): 45 days | tumor growth inhibition (TGI) vs. vehicle ([2]; day 35, 10 mg/kg IV once a week for six weeks): 95% | %TGI ([2]; day 35, QBS10072S alone, 10 mg/kg once a week for 4 weeks): 86% | %TGI ([2]; day 35, combination of QBS10072S 10 mg/kg once a week for 4 weeks and RT 1.5 Gy once daily for 5 days): 96% | level in brain tumor as % of blood levels ([3]; 1 hour post-dose): 89% | level in brain tumor as % of blood levels ([3]; 8 hours post-dose): 73% | level in brain tumor as % of blood levels ([3]; 24 hours post-dose): 37%
